Test results as given in patent US6737383B1, “Herbicidal oxadiazolidines” (priority 1999, dated 2004).

Experiments:
morningglory = experiment: Test B pre/postemergence morningglory; assay type: in vivo, Ipomoea hederacea
In short: (§1)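 Test chemicals in a non-phytotoxic solvent mixture with surfactant were sprayed preemergence onto planted seeds and postemergence onto plants 2 to 18 cm tall (1- to 4-leaf stage). After twelve to sixteen days in a greenhouse, injury was visually rated against untreated controls from 0 (no effect) to 10 (complete control).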

purple nutsedge = experiment: Test B pre/postemergence purple nutsedge; assay type: in vivo, Cyperus rotundus
In short: as §1

rape = experiment: Test B pre/postemergence rape; assay type: in vivo, Brassica napus
In short: as §1

blackgrass = experiment: Test B pre/postemergence blackgrass; assay type: in vivo, Alopecurus myosuroides
In short: as §1

soybean = experiment: Test B pre/postemergence soybean; assay type: in vivo, Glycine max
In short: as §1

wild oat = experiment: Test B pre/postemergence wild oat; assay type: in vivo, Avena fatua
In short: as §1

smallflower flatsedge = experiment: Test B flood test smallflower flatsedge; assay type: in vivo, Cyperus difformis
In short: (§2)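 Each value is a visual injury score relative to controls, with 10 meaning complete control and 0 no effect. Evaluation took place twelve to sixteen days after the 2-leaf-stage plants were treated and kept in the greenhouse.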

sugar beet = experiment: Test B pre/postemergence sugar beet; assay type: in vivo, Beta vulgaris
In short: as §1

cocklebur = experiment: Test B pre/postemergence cocklebur; assay type: in vivo, Xanthium strumarium
In short: as §1

bamyardgrass = experiment: Test B flood test barnyardgrass; assay type: in vivo, Echinochloa crus-galli
In short: as §2

velvetleaf = experiment: Test B pre/postemergence velvetleaf; assay type: in vivo, Abutilon theophrasti
In short: as §1

wheat = experiment: Test B pre/postemergence wheat; assay type: in vivo, Triticum aestivum
In short: as §1

duck salad = experiment: Test B flood test duck salad; assay type: in vivo, Heteranthera limosa
In short: as §2

giant foxtail = experiment: Test B pre/postemergence giant foxtail; assay type: in vivo, Setaria faberii
In short: as §1

rice = experiment: Test B flood test rice; assay type: in vivo, Oryza sativa
In short: as §2

pigweed = experiment: Test B pre/postemergence pigweed; assay type: in vivo, Amaranthus retroflexus
In short: as §1

[1] = Postemergence, Rate 62 g/ha, scale 0 to 10, 0 is no effect, 10 is complete control
[2] = Postemergence, Rate 250 g/ha, scale 0 to 10, 0 no effect, 10 complete control
[3] = Preemergence, Rate 31 g/ha, visual rating, scale 0 to 10 (0 no effect, 10 complete control)
[4] = Preemergence, Rate 62 g/ha, scale 0 to 10, 0 is no effect, 10 is complete control
[5] = Preemergence, Rate 125 g/ha, scale 0 to 10 (0 no effect, 10 complete control)
[6] = Preemergence, Rate 250 g/ha, scale of 0 to 10 where 0 is no effect and 10 is complete control
[7] = Rate 31 g/ha, Postemergence, scale 0 to 10
[8] = Rate 125 g/ha, Postemergence, scale 0 to 10, 0 no effect, 10 complete control
[9] = Rate 125 g/ha, Postemergence section (flood test species), scale 0 to 10, 0 no effect, 10 complete control
[10] = flood test, listed under Postemergence, Rate 250 g/ha, scale 0 to 10, 0 no effect, 10 complete control
[11] = Rate 31 g/ha, Postemergence section (flood test species), scale 0 to 10
[12] = Preemergence, Rate 500 g/ha, scale 0 (no effect) to 10 (complete control)
[13] = Rate 500 g/ha, Postemergence, 0 to 10 scale (0 no effect, 10 complete control)
[14] = Rate 500 g/ha, Postemergence section of Table B, 0 to 10 scale (0 no effect, 10 complete control)

CCN(C(=O)n1oc(=O)n(-c2ccc(F)cc2F)c1=O)C1CCCCC1 [Compound 23]
Morningglory plant response rating (morningglory; [1]): 1 | Morningglory plant response rating (morningglory; [2]): 10 | Morningglory plant response rating (morningglory; [3]): 0 | Plant response rating, Morningglory (morningglory; [4]): 0 | Plant response rating, Morningglory (morningglory; [5]): 0 | Plant response rating, Morningglory (morningglory; [6]): 0 | Morningglory plant response rating (morningglory; [7]): 0 | Morningglory plant response rating (morningglory; [8]): 8 | Nutsedge plant response rating (purple nutsedge; [1]): 0 | Nutsedge plant response rating (purple nutsedge; [2]): 0 | Nutsedge plant response rating (purple nutsedge; [3]): 0 | Plant response rating, Nutsedge (purple nutsedge; [4]): 0 | Plant response rating, Nutsedge (purple nutsedge; [5]): 0 | Plant response rating, Nutsedge (purple nutsedge; [6]): 0 | Nutsedge plant response rating (purple nutsedge; [7]): 0 | Nutsedge plant response rating (purple nutsedge; [8]): 0 | Rape plant response rating (rape; [1]): 0 | Rape plant response rating (rape; [2]): 0 | Rape plant response rating (rape; [3]): 0 | Plant response rating, Rape (rape; [4]): 0 | Plant response rating, Rape (rape; [5]): 0 | Plant response rating, Rape (rape; [6]): 0 | Rape plant response rating (rape; [7]): 0 | Rape plant response rating (rape; [8]): 0 | Blackgrass plant response rating (blackgrass; [1]): 0 | Blackgrass plant response rating (blackgrass; [2]): 0 | Blackgrass plant response rating (blackgrass; [3]): 0 | Plant response rating, Blackgrass (blackgrass; [4]): 0 | Plant response rating, Blackgrass (blackgrass; [5]): 1 | Plant response rating, Blackgrass (blackgrass; [6]): 2 | Blackgrass plant response rating (blackgrass; [7]): 0 | Blackgrass plant response rating (blackgrass; [8]): 0 | Soybean plant response rating (soybean; [1]): 3 | Soybean plant response rating (soybean; [2]): 4 | Soybean plant response rating (soybean; [3]): 0 | Plant response rating, Soybean (soybean; [4]): 0 | Plant response rating, Soybean (soybean; [5]): 0 | Plant response rating, Soybean (soybean; [6]): 0 | Soybean plant response rating (soybean; [8]): 3 | Wild oats plant response rating (wild oat; [1]): 0 | Wild oats plant response rating (wild oat; [2]): 0 | Wild oats plant response rating (wild oat; [3]): 0 | Plant response rating, Wild oats (wild oat; [5]): 0 | Plant response rating, Wild oats (wild oat; [6]): 0 | Wild oats plant response rating (wild oat; [8]): 0 | S. Flatsedge plant response rating (smallflower flatsedge; [1]): 0 | S. Flatsedge plant response rating (smallflower flatsedge; [9]): 0 | S. Flatsedge plant response rating (smallflower flatsedge; [10]): 0 | Sugarbeets plant response rating (sugar beet; [1]): 0 | Sugarbeets plant response rating (sugar beet; [2]): 0 | Sugarbeets plant response rating (sugar beet; [3]): 0 | Plant response rating, Sugarbeets (sugar beet; [4]): 0 | Plant response rating, Sugarbeets (sugar beet; [5]): 0 | Plant response rating, Sugarbeets (sugar beet; [6]): 0 | Sugarbeets plant response rating (sugar beet; [8]): 0 | Cocklebur plant response rating (cocklebur; [1]): 0 | Cocklebur plant response rating (cocklebur; [2]): 0 | Cocklebur plant response rating (cocklebur; [3]): 0 | Plant response rating, Cocklebur (cocklebur; [4]): 0 | Plant response rating, Cocklebur (cocklebur; [5]): 0 | Cocklebur plant response rating (cocklebur; [7]): 0 | Cocklebur plant response rating (cocklebur; [8]): 0 | Barnyardgrass plant response rating (bamyardgrass; [1]): 0 | Barnyardgrass plant response rating (bamyardgrass; [11]): 0 | Barnyardgrass plant response rating (bamyardgrass; [9]): 0 | Barnyardgrass plant response rating (bamyardgrass; [10]): 0 | Velvetleaf plant response rating (velvetleaf; [1]): 0 | Velvetleaf plant response rating (velvetleaf; [2]): 0 | Velvetleaf plant response rating (velvetleaf; [3]): 0 | Plant response rating, Velvetleaf (velvetleaf; [4]): 0 | Plant response rating, Velvetleaf (velvetleaf; [5]): 0 | Plant response rating, Velvetleaf (velvetleaf; [6]): 0 | Velvetleaf plant response rating (velvetleaf; [8]): 0 | Wheat plant response rating (wheat; [1]): 0 | Wheat plant response rating (wheat; [2]): 0 | Wheat plant response rating (wheat; [3]): 0 | Plant response rating, Wheat (wheat; [4]): 0 | Plant response rating, Wheat (wheat; [5]): 0 | Plant response rating, Wheat (wheat; [6]): 0 | Wheat plant response rating (wheat; [8]): 0 | Ducksalad plant response rating (duck salad; [1]): 0 | Ducksalad plant response rating (duck salad; [11]): 0 | Ducksalad plant response rating (duck salad; [9]): 0 | Ducksalad plant response rating (duck salad; [10]): 0 | Giant foxtail plant response rating (giant foxtail; [1]): 0 | Giant foxtail plant response rating (giant foxtail; [2]): 2 | Giant foxtail plant response rating (giant foxtail; [3]): 1 | Plant response rating, Giant foxtail (giant foxtail; [4]): 2 | Plant response rating, Giant foxtail (giant foxtail; [5]): 2 | Plant response rating, Giant foxtail (giant foxtail; [6]): 3 | Giant foxtail plant response rating (giant foxtail; [7]): 0 | Giant foxtail plant response rating (giant foxtail; [8]): 2 | Rice plant response rating (rice; [1]): 0 | Rice plant response rating (rice; [11]): 0 | Rice plant response rating (rice; [9]): 0 | Rice plant response rating (rice; [10]): 0 | Redroot pigweed plant response rating (pigweed; [1]): 0 | Redroot pigweed plant response rating (pigweed; [2]): 0 | Redroot pigweed plant response rating (pigweed; [3]): 0 | Plant response rating, Redroot pigweed (pigweed; [4]): 0 | Plant response rating, Redroot pigweed (pigweed; [5]): 0 | Plant response rating, Redroot pigweed (pigweed; [6]): 0 | Redroot pigweed plant response rating (pigweed; [7]): 0 | Redroot pigweed plant response rating (pigweed; [8]): 0

Cc1ccc(-n2c(=O)on(C(=O)N(c3ccc(F)cc3F)C(C)C)c2=O)c(C)c1 [Compound 24]
Morningglory plant response rating (morningglory; [1]): 9 | Morningglory plant response rating (morningglory; [2]): 10 | Plant response rating, Morningglory (morningglory; [4]): 0 | Plant response rating, Morningglory (morningglory; [5]): 0 | Plant response rating, Morningglory (morningglory; [6]): 0 | Morningglory plant response rating (morningglory; [12]): 0 | Morningglory plant response rating (morningglory; [8]): 9 | Nutsedge plant response rating (purple nutsedge; [1]): 0 | Nutsedge plant response rating (purple nutsedge; [2]): 0 | Plant response rating, Nutsedge (purple nutsedge; [4]): 0 | Plant response rating, Nutsedge (purple nutsedge; [5]): 0 | Plant response rating, Nutsedge (purple nutsedge; [6]): 0 | Nutsedge plant response rating (purple nutsedge; [12]): 0 | Nutsedge plant response rating (purple nutsedge; [8]): 0 | Nutsedge plant response rating (purple nutsedge; [13]): 0 | Rape plant response rating (rape; [1]): 0 | Rape plant response rating (rape; [2]): 0 | Plant response rating, Rape (rape; [4]): 0 | Plant response rating, Rape (rape; [5]): 0 | Plant response rating, Rape (rape; [6]): 0 | Rape plant response rating (rape; [12]): 1 | Rape plant response rating (rape; [8]): 0 | Rape plant response rating (rape; [13]): 2 | Blackgrass plant response rating (blackgrass; [1]): 0 | Blackgrass plant response rating (blackgrass; [2]): 3 | Plant response rating, Blackgrass (blackgrass; [4]): 0 | Plant response rating, Blackgrass (blackgrass; [5]): 1 | Plant response rating, Blackgrass (blackgrass; [6]): 4 | Blackgrass plant response rating (blackgrass; [12]): 4 | Blackgrass plant response rating (blackgrass; [8]): 1 | Blackgrass plant response rating (blackgrass; [13]): 6 | Soybean plant response rating (soybean; [1]): 3 | Soybean plant response rating (soybean; [2]): 3 | Plant response rating, Soybean (soybean; [4]): 0 | Plant response rating, Soybean (soybean; [5]): 0 | Plant response rating, Soybean (soybean; [6]): 0 | Soybean plant response rating (soybean; [12]): 2 | Soybean plant response rating (soybean; [8]): 3 | Wild oats plant response rating (wild oat; [1]): 0 | Wild oats plant response rating (wild oat; [2]): 0 | Plant response rating, Wild oats (wild oat; [5]): 0 | Plant response rating, Wild oats (wild oat; [6]): 0 | Wild oats plant response rating (wild oat; [12]): 2 | Wild oats plant response rating (wild oat; [8]): 0 | S. Flatsedge plant response rating (smallflower flatsedge; [1]): 0 | S. Flatsedge plant response rating (smallflower flatsedge; [9]): 0 | S. Flatsedge plant response rating (smallflower flatsedge; [10]): 0 | Sugarbeets plant response rating (sugar beet; [1]): 0 | Sugarbeets plant response rating (sugar beet; [2]): 0 | Plant response rating, Sugarbeets (sugar beet; [4]): 0 | Plant response rating, Sugarbeets (sugar beet; [5]): 3 | Plant response rating, Sugarbeets (sugar beet; [6]): 4 | Sugarbeets plant response rating (sugar beet; [12]): 9 | Sugarbeets plant response rating (sugar beet; [8]): 0 | Cocklebur plant response rating (cocklebur; [1]): 0 | Cocklebur plant response rating (cocklebur; [2]): 1 | Plant response rating, Cocklebur (cocklebur; [4]): 0 | Plant response rating, Cocklebur (cocklebur; [5]): 0 | Plant response rating, Cocklebur (cocklebur; [6]): 0 | Cocklebur plant response rating (cocklebur; [8]): 0 | Cocklebur plant response rating (cocklebur; [13]): 2 | Barnyardgrass plant response rating (bamyardgrass; [1]): 0 | Barnyardgrass plant response rating (bamyardgrass; [9]): 0 | Barnyardgrass plant response rating (bamyardgrass; [14]): 8 | Barnyardgrass plant response rating (bamyardgrass; [10]): 0 | Velvetleaf plant response rating (velvetleaf; [1]): 0 | Velvetleaf plant response rating (velvetleaf; [2]): 0 | Plant response rating, Velvetleaf (velvetleaf; [4]): 0 | Plant response rating, Velvetleaf (velvetleaf; [5]): 0 | Plant response rating, Velvetleaf (velvetleaf; [6]): 0 | Velvetleaf plant response rating (velvetleaf; [12]): 0 | Velvetleaf plant response rating (velvetleaf; [8]): 0 | Wheat plant response rating (wheat; [1]): 0 | Wheat plant response rating (wheat; [2]): 0 | Plant response rating, Wheat (wheat; [4]): 0 | Plant response rating, Wheat (wheat; [5]): 0 | Plant response rating, Wheat (wheat; [6]): 0 | Wheat plant response rating (wheat; [12]): 0 | Wheat plant response rating (wheat; [8]): 0 | Ducksalad plant response rating (duck salad; [1]): 0 | Ducksalad plant response rating (duck salad; [9]): 0 | Ducksalad plant response rating (duck salad; [14]): 0 | Ducksalad plant response rating (duck salad; [10]): 0 | Giant foxtail plant response rating (giant foxtail; [1]): 0 | Giant foxtail plant response rating (giant foxtail; [2]): 3 | Plant response rating, Giant foxtail (giant foxtail; [4]): 6 | Plant response rating, Giant foxtail (giant foxtail; [5]): 7 | Plant response rating, Giant foxtail (giant foxtail; [6]): 9 | Giant foxtail plant response rating (giant foxtail; [12]): 9 | Giant foxtail plant response rating (giant foxtail; [8]): 2 | Giant foxtail plant response rating (giant foxtail; [13]): 8 | Rice plant response rating (rice; [1]): 0 | Rice plant response rating (rice; [9]): 0 | Rice plant response rating (rice; [14]): 0 | Rice plant response rating (rice; [10]): 0 | Redroot pigweed plant response rating (pigweed; [1]): 0 | Redroot pigweed plant response rating (pigweed; [2]): 6 | Plant response rating, Redroot pigweed (pigweed; [4]): 2 | Plant response rating, Redroot pigweed (pigweed; [5]): 6 | Plant response rating, Redroot pigweed (pigweed; [6]): 6 | Redroot pigweed plant response rating (pigweed; [12]): 9 | Redroot pigweed plant response rating (pigweed; [8]): 2 | Redroot pigweed plant response rating (pigweed; [13]): 6
